What all share (assay type): cell-based
For one assay, the target named is T1, KRAS G12A (Homo sapiens, UniProt P01116, G12A).
T1 construct: expressed in transfected cells
Put plainly: Cellular KRAS:RAF Disruption Assay (NanoBRET), KRAS G12A. Conditions: HEK293 T cells co-expressing RAF1 and KRAS G12A, 24 hours; read-out: RAS::RAF binding via NanoBRET IC50, KRAS G12A. How it is done: (§1) Cellular KRAS:RAF Disruption Assay
(§2) Stable cell lines (HEK293 T) were generated to co-express RAF1 and mutant or wild type KRAS, as indicated, using the BiBRET vector (Promega). Engineered cell lines were suspended in media (OptiMEM, […]), plated in 384-well plates (8000 cells/well), and allowed to rest for 1.5 hours. Cells were treated with compounds for 24 hours, and NanoBRET NanoGlo substrate (Promega) was added per the manufacturer's instructions.
Background: In BRET a luciferase serves as donor, and the signal depends on an acceptor being close.

Another assay deals with T2, KRAS G12V (Homo sapiens, UniProt P01116, G12V).
T2 construct: expressed in transfected cells
Put plainly: Cellular KRAS:RAF Disruption Assay (NanoBRET), KRAS G12V. As to conditions: HEK293 T cells co-expressing RAF1 and KRAS G12V, 24 hours; read-out: RAS::RAF binding via NanoBRET IC50, KRAS G12V. Here is the method: as §1, §2

A further assay concerns the target T3, KRAS G12C (Homo sapiens, UniProt P01116, G12C).
T3 construct: expressed in transfected cells
Put plainly: Cellular KRAS:RAF Disruption Assay (NanoBRET), KRAS G12C. As to conditions: HEK293 T cells co-expressing RAF1 and KRAS G12C, 24 hours; read-out: RAS::RAF binding via NanoBRET IC50, KRAS G12C. How it is done:
as §1, §2

Another assay concerns the target T4, KRAS WT (Homo sapiens, UniProt P01116).
T4 construct: expressed in transfected cells
The assay is described as follows: Cellular KRAS:RAF Disruption Assay (NanoBRET), KRAS WT. Conditions: HEK293 T cells co-expressing RAF1 and wild type KRAS, 24 hours; read-out: RAS::RAF binding via NanoBRET IC50, KRAS WT. How it is done:
as §1, §2

T3 sequence (P01116 1-188 isoform P01116-2 G12C): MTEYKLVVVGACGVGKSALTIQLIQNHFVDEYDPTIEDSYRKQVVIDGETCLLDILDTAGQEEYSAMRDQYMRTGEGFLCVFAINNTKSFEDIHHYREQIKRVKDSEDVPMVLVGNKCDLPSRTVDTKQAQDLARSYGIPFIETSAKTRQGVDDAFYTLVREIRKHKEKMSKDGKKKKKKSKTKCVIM
T1 sequence (P01116 1-188 isoform P01116-2 G12A): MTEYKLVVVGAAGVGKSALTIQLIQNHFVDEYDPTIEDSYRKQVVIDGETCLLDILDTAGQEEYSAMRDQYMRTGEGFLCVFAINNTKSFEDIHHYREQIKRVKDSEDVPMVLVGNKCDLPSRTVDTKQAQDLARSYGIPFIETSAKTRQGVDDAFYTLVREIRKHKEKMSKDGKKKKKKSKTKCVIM
T2 sequence (P01116 1-188 isoform P01116-2 G12V): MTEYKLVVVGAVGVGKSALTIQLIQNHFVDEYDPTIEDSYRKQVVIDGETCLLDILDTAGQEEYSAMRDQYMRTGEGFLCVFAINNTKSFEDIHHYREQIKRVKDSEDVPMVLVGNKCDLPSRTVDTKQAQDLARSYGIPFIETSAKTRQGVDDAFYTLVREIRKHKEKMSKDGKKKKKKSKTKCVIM
T4 sequence (P01116 1-188 isoform P01116-2): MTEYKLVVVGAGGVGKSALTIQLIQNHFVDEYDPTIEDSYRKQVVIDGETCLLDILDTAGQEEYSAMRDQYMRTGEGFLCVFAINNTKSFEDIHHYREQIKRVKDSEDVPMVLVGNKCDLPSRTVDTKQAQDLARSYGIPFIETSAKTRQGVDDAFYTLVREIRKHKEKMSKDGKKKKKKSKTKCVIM

For the compound `C#Cc1c(F)ccc2cc(O)cc(-c3ncc4c(N5CCOC6CC65)nc(OC[C@]56CCC[C@H]5N(C)CCC6)nc4c3F)c12` (single isomer, unassigned) [Example 1-99], the IC50 (commonly the point on the concentration scale where inhibition reaches its midpoint) on KRAS G12A is 12 nM; at KRAS G12V it was 126 nM; on KRAS G12C, 11 nM; on KRAS WT, 3 nM.

Regarding `C#Cc1c(F)ccc2cc(O)cc(-c3ncc4c(N5CC6COC(C6)C5)nc(OC[C@@]56CCCN5C[C@H](F)C6)nc4c3F)c12` (stereo partly drawn) [Example 1-90, 4-(2-{[(2R,7aS)-2-fluoro-hexahydro-1H-pyrrolizin-7a-yl]methoxy}-8-fluoro-4-{6-oxa-3-azabicyclo [3.2.1]octan-3-yl}pyrido[4,3-d]pyrimidin-7-yl)-5-ethynyl-6-fluoronaphthalen-2-ol], the IC50 on KRAS G12A turned out to be 19.5 nM; at KRAS G12V, 197 nM; on KRAS G12C, 41.6 nM; on KRAS WT, 11.9 nM.

Consider `C#Cc1c(F)ccc2cc(O)cc(-c3ncc4c(N5CCOC6CC65)nc(OC[C@@]56CCCN5C[C@H](F)C6)nc4c3F)c12` (stereo partly drawn) [Example 1-100, 4-(2-{[(2R,7aS)-2-fluoro-hexahydro-1H-pyrrolizin-7a-yl]methoxy}-8-fluoro-4-{2-oxa-5-azabicyclo[4.1.0]heptan-5-yl}pyrido[4,3-d]pyrimidin-7-yl)-5-ethynyl-6-fluoronaphthalen-2-ol], for which the 50% inhibitory concentration (IC50) on KRAS G12A came to 4.6 nM; on KRAS G12V, 118 nM; on KRAS G12C, 12.9 nM; on KRAS WT it was 12.3 nM.

Take `C#Cc1c(F)ccc2cc(O)cc(-c3ncc4c(N5CCOCC(F)(F)C5)nc(OC[C@]56CCC[C@H]5N(C)CCC6)nc4c3F)c12` [Example 1-107, 4-(2-{[(4aS,7aR)-1-methyl-octahydro-1H-cyclopenta[b]pyridin-4a-yl]methoxy}-4-(6,6-difluoro-1,4-oxazepan-4-yl)-8-fluoropyrido[4,3-d]pyrimidin-7-yl)-5-ethynyl-6-fluoronaphthalen-2-ol]: the half-maximal inhibitory concentration (IC50) at KRAS G12A came out at 5.3 nM; on KRAS G12V, 133 nM; at KRAS G12C it was 9.8 nM; at KRAS WT, 9.7 nM.

Turning to `C#Cc1c(F)ccc2cc(O)cc(-c3ncc4c(N5CCOCC(C)(O)C5)nc(OC[C@]56CCC[C@H]5N(C)CCC6)nc4c3F)c12` (stereo partly drawn) [Example 1-108, 4-(2-{[(4aS,7aR)-1-methyl-octahydro-1H-cyclopenta[b]pyridin-4a-yl]methoxy}-7-(8-ethynyl-7-fluoro-3-hydroxynaphthalen-1-yl)-8-fluoropyrido[4,3-d]pyrimidin-4-yl)-6-methyl-1,4-oxazepan-6-ol], the IC50 on KRAS G12A is 13.2 nM; at KRAS G12V, 140 nM; on KRAS G12C it was 18.8 nM; at KRAS WT, 17.2 nM.

Turning to `C#Cc1c(F)ccc2cc(O)cc(-c3ccc4c(N5CCCC(C)(O)C5)nc(OC[C@]56CCC[C@H]5N(C)CCC6)nc4c3F)c12` (stereo partly drawn) [Example 2-72, 1-(2-{[(4aS,7aR)-1-methyl-octahydro-1H-cyclopenta[b]pyridin-4a-yl]methoxy}-7-(8-ethynyl-7-fluoro-3-hydroxynaphthalen-1-yl)-8-fluoroquinazolin-4-yl)-3-methylpiperidin-3-ol], the IC50 on KRAS G12A was 9 nM; at KRAS G12V, 40.5 nM; on KRAS G12C it was 12.8 nM; at KRAS WT, 3.6 nM.

Regarding `C#Cc1c(F)ccc2cc(O)cc(-c3ccc4c(N5C[C@@H]6C[C@H]5C(=O)N6)nc(OC[C@]56CCC[C@H]5N(C)CCC6)nc4c3F)c12` [Example 5-1, (1S,4S)-5-(2-{[(4aS,7aR)-1-methyl-octahydro-1H-cyclopenta[b]pyridin-4a-yl]methoxy}-7-(8-ethynyl-7-fluoro-3-hydroxynaphthalen-1-yl)-8-fluoroquinazolin-4-yl)-2,5-diazabicyclo[2.2.1]heptan-3-one], the IC50 on KRAS G12A was found to be 881 nM; on KRAS G12V, 2510 nM; on KRAS G12C, 826 nM; at KRAS WT, 238 nM.

Source of the values: patent US20240199584A1, “KRAS INHIBITORS” (Bristol-Myers Squibb Company, priority 2022, published 2024).
